Data: ChEMBL document CHEMBL4251687, “Acyl Sulfonamides NaV1.7 Blockers Useful for the Treatment of Pain” (ACS Med Chem Lett, 2018)
Each block holds one molecule with its values, some of them ahead of it.

Legend:
Type in all cases: cell-based
[1] = target: T1, Sodium channel protein type 9 subunit alpha (Homo sapiens, UniProt Q15858); assay: Displacement of [3H]-labelled radioligand from human Nav1.7 expressed in HEK293 cells measured after 24 hrs by liquid scintillation counting method
[2] = target: T1, Sodium channel protein type 9 subunit alpha; assay: Inhibition of Nav1.7 (unknown origin) expressed in HEK293 cells at -60 mV holding potential measured after 600 secs by patch clamp method
[3] = target: Sodium channel protein type 5 subunit alpha (Homo sapiens, UniProt Q14524); assay: Inhibition of Nav1.5 (unknown origin) expressed in HEK293 cells at -40 mV holding potential measured after 600 secs by patch clamp method
Sequence of Sodium channel protein type 5 subunit alpha (Q14524 whole entry): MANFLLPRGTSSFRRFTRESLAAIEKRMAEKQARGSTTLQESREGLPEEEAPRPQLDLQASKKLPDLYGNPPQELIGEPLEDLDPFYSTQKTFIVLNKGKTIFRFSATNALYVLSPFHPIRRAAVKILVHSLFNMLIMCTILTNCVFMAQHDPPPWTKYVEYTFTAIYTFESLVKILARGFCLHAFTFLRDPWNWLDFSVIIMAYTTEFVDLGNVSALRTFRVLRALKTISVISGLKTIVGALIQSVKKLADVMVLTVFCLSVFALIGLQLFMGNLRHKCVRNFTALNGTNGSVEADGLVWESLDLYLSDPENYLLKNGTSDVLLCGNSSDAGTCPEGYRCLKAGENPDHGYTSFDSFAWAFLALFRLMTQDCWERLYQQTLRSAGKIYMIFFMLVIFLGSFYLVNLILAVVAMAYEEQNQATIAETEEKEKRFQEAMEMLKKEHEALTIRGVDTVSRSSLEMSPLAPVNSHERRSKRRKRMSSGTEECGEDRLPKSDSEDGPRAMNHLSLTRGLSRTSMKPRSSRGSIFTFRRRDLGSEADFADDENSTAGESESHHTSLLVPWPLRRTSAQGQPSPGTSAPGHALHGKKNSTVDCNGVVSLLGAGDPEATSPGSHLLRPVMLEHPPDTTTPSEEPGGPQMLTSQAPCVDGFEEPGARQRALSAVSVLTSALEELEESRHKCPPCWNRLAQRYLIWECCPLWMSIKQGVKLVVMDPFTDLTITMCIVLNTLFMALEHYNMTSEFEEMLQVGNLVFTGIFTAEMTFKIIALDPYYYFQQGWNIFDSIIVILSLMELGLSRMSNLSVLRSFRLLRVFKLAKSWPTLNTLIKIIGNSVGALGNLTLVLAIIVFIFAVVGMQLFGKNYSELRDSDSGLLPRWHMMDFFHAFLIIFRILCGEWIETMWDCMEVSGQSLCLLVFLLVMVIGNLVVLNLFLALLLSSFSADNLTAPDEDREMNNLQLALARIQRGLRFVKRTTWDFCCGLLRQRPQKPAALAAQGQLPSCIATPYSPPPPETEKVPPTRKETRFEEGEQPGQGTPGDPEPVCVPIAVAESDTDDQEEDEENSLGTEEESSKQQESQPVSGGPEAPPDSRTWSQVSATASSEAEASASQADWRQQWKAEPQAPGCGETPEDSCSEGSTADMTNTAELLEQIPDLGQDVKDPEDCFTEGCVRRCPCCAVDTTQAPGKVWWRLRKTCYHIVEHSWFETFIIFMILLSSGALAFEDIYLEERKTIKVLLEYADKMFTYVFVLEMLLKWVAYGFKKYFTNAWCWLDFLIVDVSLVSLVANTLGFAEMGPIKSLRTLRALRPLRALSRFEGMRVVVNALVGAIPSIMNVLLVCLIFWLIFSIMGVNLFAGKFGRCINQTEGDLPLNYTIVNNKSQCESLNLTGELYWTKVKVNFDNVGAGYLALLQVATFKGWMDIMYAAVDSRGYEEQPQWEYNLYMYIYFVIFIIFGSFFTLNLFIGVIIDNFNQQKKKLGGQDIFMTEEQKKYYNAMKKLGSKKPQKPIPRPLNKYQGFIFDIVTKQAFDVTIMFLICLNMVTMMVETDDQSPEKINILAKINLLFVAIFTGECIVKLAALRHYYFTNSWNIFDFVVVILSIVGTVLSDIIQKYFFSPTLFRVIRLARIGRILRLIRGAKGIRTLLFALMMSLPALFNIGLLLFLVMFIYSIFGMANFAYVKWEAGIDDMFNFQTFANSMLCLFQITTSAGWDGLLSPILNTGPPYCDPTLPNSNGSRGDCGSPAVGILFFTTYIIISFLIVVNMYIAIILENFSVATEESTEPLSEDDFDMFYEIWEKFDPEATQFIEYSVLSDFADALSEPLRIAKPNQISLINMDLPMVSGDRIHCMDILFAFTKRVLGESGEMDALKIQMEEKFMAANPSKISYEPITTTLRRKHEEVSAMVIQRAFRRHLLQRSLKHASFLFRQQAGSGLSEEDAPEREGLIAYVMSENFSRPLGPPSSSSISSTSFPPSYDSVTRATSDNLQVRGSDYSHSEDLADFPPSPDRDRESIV

T1 sequence (Q15858 whole entry): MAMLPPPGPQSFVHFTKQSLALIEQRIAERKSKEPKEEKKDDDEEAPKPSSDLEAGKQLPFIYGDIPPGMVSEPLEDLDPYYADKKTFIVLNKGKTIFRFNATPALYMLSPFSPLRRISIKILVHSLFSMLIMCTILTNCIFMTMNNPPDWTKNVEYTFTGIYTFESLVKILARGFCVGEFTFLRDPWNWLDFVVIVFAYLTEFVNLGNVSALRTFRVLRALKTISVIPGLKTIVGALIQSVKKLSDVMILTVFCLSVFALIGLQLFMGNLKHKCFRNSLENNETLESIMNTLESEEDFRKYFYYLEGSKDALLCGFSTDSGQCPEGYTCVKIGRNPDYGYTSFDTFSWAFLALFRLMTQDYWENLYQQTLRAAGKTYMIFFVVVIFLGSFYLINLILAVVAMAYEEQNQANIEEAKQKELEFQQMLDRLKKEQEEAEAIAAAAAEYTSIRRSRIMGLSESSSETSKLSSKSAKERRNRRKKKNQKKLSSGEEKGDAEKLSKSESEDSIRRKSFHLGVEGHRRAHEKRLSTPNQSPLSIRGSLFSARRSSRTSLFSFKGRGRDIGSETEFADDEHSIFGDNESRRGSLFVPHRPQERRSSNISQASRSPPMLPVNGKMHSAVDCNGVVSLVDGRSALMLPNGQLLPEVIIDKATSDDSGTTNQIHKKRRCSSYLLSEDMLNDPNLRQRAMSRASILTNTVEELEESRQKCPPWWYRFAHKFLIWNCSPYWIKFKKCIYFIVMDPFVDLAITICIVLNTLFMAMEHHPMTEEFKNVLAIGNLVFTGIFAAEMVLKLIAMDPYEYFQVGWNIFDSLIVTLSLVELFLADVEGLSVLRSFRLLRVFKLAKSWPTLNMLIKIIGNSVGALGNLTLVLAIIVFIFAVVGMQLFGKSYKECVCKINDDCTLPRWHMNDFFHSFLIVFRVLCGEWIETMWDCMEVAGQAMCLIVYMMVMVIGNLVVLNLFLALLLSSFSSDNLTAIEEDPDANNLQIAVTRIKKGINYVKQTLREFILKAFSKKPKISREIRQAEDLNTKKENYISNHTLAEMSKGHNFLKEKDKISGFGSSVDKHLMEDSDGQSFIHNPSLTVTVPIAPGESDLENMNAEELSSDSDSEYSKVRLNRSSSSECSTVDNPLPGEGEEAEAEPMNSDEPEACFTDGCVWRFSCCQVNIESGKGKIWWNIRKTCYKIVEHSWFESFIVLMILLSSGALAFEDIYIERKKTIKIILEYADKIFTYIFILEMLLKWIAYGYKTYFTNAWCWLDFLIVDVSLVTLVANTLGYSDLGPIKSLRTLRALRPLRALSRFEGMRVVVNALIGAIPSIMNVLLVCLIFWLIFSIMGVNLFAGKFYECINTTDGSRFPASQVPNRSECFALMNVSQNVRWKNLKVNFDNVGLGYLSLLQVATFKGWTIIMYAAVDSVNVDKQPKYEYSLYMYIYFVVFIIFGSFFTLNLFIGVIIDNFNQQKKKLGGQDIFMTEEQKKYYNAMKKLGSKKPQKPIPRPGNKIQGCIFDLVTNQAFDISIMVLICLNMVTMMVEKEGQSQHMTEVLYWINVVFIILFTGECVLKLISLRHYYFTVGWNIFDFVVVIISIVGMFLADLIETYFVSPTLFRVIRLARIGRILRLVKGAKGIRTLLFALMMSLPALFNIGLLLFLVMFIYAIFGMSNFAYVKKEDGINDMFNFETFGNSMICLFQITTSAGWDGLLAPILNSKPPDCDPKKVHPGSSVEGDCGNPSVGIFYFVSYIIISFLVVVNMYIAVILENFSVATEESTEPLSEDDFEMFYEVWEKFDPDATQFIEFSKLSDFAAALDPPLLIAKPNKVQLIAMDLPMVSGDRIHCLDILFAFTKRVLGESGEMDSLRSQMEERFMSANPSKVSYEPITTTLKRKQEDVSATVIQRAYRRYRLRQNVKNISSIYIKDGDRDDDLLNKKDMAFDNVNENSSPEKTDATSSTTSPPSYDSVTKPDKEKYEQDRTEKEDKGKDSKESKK

IC50 [1]: 46 nM
Structure (SMILES): Cn1cc(-c2ccc(C(F)F)cc2)c2cc(F)c(C(=O)NS(=O)(=O)C3CC3)cc21

IC50 [2]: 90 nM
Structure (SMILES): CC(C)COc1ncc(-c2cn(C)c3cc(C(=O)NS(C)(=O)=O)ccc23)cc1Cl

Structure (SMILES): Cn1cc(-c2ccc(C(F)(F)F)cc2)c2cc(F)c(C(=O)NS(C)(=O)=O)cc21
IC50 [3]: 30000 nM
